We go through two molecules from PMC6689897, “Drugging an undruggable pocket on KRAS” (Proceedings of the National Academy of Sciences of the …, 2019).

The assay relates to KRAS. Description: Alpha Screen PPI assays, summary over KRAS interactions (SOS1, CRAF, PI3Kα). Type of assay: biochemical, human. The source says:
Using biochemical assays, we investigated whether 1 inhibited 3 of the 4 PPIs important for KRAS cycling (Fig. 5 A, i–iii). Namely, 1) GDP-KRAS interaction with the catalytic site of SOS ([33]), 2) GTP-KRAS interaction with the allosteric site of SOS ([34]), and 3) GTP-KRAS interaction with downstream effectors (CRAF and PI3Kα). We were unable to establish a biochemical assay for the fourth intervention point, namely, 4) GTP-KRAS interaction with its GAPs (Fig. 5 A, iv). As a reference compound for these assays, we used the KRAS^G12C-specific covalent inhibitor ARS-1620 ([35]). Compound 1 inhibited all 3 RAS cycle intervention points (1 to 3) in a dose-dependent manner (Fig. 5 B–E) in the range of 100 to 770 nM (SI Appendix, Table S6).
217 The coordinates and structure factors of the structures have been deposited at the
218 Protein Data Bank with the accession codes PDB Code 6GJ5, 6GJ6, 6GJ7, 6GJ8.
221 Measurements of various protein–protein interactions were performed using the Alpha
222 Screen technology developed by Perkin Elmer. Recombinant RAS proteins (H-, N-, K-
223 RAS variants; all KRAS variants are based on KRAS isoform 4B (uniprot id P01116-2);
224 KRAS (G12D) 1-169, N-terminal 6His-tag, C-terminal avi-tag was from Xtal
225 BioStructures, Inc., KRAS (G12C) 1-169, C-terminal avi-tag, biotinylated, mutations:
226 C51S, C80L, C118S, NRAS(wt) 1-172, C-terminal avi-tag, biotinylated; HRAS(wt) 1-
227 166, C-terminal avi-tag, biotinylated). Biotinylation was performed in vitro with
228 recombinant BirA biotin-protein ligase as recommended by the manufacturer (Avidity
229 LLC, Aurora, Colorado, USA). Interacting proteins such as SOS1 (564-1049, N-terminal
230 GST-tag, TEV cleavage site), cRaf (1-303, N-terminal GST-tag, TEV cleavage site) and
231 PI3KA- RBD (160-317, N-term-HIS_GST-tag) were expressed as glutathione S […]
245 for 60 min in the dark at room temperature. Single oxygen induced fluorescence was
246 measured at an Enspire multimode plate reader (Perkin Elmer) according to the
247 manufacturer’s recommendations. Data were analyzed using the GraphPad Prism data […]

Consider `Cn1cnc(Cn2ccc3ccc(CNCc4[nH]c5ccccc5c4[C@H]4NC(=O)c5ccc(O)cc54)cc32)c1` [Compound 1], for which, for the setting “GDP-KRAS::SOS, GTP-KRAS::SOS, GTP-KRAS::effectors (CRAF, PI3Kα), read-out: inhibition of all 3 RAS cycle intervention points, range”, the IC50 was 100 to 770 nM.
In the case of `C=CC(=O)N1CCN(c2ncnc3c(F)c(-c4c(O)cccc4F)c(Cl)cc23)CC1` [ARS-1620, reference compound], the “activity in all GTP-dependent KRAS assays” value was “inactive”.
